Measurements from the kinase profiling compilation of Christmann-Franck et al. (2016).

Key:
Assay in all cases: KINOMEscan competition binding
Details in all cases: compound 10.0 µM
DYRK1B (human) = DYRK1B (human) (UniProt Q9Y463)
PAK2 (human) = PAK2 (human) (UniProt Q13177)
ZAP70 (human) = ZAP70 (human) (UniProt P43403)
MKNK2 (human) = MKNK2 (human) (UniProt Q9HBH9)
PAK1 (human) = PAK1 (human) (UniProt Q13153)
CAMK2D (human) = CAMK2D (human) (UniProt Q13557)
MAPK15 (human) = MAPK15 (human) (UniProt Q8TD08)
CDC42BPG (human) = CDC42BPG (human) (UniProt Q6DT37)
CDC42BPG (human), sequence (Q6DT37 whole entry, looked up): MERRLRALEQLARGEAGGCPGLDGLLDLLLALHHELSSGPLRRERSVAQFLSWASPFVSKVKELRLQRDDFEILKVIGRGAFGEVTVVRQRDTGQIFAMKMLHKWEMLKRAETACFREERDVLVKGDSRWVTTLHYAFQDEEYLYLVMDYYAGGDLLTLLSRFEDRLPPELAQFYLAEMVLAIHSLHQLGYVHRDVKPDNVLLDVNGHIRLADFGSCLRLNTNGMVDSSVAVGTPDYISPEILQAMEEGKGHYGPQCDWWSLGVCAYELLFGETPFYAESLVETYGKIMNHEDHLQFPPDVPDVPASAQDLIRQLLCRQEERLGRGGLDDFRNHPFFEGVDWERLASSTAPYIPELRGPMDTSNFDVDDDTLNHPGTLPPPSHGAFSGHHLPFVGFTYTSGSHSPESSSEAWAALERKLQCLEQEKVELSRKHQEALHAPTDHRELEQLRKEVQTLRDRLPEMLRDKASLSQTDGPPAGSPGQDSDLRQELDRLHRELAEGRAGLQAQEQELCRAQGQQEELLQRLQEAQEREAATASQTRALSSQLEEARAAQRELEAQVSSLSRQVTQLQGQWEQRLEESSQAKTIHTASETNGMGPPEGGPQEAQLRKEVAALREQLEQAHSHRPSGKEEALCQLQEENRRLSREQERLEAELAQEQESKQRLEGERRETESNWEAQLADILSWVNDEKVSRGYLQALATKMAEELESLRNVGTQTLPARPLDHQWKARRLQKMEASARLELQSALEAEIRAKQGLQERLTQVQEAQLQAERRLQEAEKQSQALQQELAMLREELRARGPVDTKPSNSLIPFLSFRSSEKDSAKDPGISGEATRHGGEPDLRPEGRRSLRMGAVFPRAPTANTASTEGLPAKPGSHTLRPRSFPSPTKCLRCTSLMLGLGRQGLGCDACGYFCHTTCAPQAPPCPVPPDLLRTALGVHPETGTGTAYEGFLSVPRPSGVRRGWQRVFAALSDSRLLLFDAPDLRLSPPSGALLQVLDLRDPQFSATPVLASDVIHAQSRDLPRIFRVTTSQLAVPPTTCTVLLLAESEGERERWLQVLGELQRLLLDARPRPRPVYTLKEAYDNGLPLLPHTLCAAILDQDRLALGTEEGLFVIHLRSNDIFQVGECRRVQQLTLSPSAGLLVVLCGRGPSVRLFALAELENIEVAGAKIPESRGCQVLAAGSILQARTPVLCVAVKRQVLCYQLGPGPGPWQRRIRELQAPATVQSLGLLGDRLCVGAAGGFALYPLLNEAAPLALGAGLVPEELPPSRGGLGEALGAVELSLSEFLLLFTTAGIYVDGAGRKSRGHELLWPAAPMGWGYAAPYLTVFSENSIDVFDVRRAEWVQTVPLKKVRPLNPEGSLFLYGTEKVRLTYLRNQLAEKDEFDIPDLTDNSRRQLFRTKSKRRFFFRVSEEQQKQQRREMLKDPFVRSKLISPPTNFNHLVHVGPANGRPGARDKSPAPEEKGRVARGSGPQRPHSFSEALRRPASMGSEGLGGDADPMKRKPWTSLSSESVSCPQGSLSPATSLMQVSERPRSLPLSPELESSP

HCK (human) = HCK (human) (UniProt P08631)
PHKG1 (human) = PHKG1 (human) (UniProt Q16816)
GSK3B (human) = GSK3B (human) (UniProt P49841)
INSRR (human) = INSRR (human) (UniProt P14616)
INSRR (human), sequence (P14616 whole entry, looked up): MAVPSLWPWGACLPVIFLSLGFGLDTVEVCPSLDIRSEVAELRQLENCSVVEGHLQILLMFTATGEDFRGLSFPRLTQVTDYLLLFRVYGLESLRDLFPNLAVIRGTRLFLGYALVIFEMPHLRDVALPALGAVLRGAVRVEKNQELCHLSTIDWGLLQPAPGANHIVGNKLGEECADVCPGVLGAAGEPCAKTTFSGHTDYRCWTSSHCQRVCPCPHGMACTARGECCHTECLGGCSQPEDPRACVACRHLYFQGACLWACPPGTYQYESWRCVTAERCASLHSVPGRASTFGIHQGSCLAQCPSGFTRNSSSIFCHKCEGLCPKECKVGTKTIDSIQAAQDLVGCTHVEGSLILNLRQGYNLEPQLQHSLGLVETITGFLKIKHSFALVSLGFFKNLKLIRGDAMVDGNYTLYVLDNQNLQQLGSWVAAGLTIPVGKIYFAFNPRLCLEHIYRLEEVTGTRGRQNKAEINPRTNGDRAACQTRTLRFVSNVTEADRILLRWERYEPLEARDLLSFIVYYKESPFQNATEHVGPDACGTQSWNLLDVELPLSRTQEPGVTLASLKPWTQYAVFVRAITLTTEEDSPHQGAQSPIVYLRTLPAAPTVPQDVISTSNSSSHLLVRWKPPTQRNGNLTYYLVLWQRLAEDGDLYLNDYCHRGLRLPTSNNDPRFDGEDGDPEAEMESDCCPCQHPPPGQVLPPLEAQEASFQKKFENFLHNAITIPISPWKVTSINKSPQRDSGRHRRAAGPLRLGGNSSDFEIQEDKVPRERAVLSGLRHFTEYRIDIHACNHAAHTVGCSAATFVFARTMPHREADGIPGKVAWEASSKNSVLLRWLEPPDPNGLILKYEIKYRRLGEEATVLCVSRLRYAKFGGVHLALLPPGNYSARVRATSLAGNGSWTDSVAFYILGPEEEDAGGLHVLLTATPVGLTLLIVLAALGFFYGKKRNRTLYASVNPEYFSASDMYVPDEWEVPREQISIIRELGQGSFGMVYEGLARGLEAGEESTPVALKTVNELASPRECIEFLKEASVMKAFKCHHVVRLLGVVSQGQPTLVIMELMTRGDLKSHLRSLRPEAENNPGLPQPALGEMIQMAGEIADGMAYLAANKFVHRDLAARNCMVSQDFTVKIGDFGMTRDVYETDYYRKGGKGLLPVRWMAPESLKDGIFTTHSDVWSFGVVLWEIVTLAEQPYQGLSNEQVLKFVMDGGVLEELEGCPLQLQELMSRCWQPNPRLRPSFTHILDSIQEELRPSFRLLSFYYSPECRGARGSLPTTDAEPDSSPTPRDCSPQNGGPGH

PRKCI (human) = PRKCI (human) (UniProt P41743)
YSK4 (human) = YSK4 (human) (UniProt Q56UN5)
CDK8 (human) = CDK8 (human) (UniProt P49336)
DCLK2 (human) = DCLK2 (human) (UniProt Q8N568)
MAP4K3 (human) = MAP4K3 (human) (UniProt Q8IVH8)
MKNK1 (human) = MKNK1 (human) (UniProt Q9BUB5)
MKNK1 (human), sequence (Q9BUB5 whole entry, looked up): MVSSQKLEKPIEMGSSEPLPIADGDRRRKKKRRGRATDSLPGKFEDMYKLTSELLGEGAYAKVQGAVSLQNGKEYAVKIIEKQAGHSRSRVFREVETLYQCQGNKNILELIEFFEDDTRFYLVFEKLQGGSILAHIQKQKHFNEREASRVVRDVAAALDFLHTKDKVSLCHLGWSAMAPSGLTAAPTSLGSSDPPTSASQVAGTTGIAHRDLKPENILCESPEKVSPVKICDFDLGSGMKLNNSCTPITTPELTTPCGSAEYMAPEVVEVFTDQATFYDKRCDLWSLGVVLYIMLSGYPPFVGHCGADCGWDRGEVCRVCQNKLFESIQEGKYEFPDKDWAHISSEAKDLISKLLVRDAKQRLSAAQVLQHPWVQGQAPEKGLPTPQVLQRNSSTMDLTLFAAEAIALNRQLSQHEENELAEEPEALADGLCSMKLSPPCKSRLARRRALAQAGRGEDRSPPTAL

CSNK1G1 (human) = CSNK1G1 (human) (UniProt Q9HCP0)
LTK (human) = LTK (human) (UniProt P29376)
ANKK1 (human) = ANKK1 (human) (UniProt Q8NFD2)
EPHA1 (human) = EPHA1 (human) (UniProt P21709)
ADCK4 (human) = ADCK4 (human) (UniProt Q96D53)
RIOK1 (human) = RIOK1 (human) (UniProt Q9BRS2)
FER (human) = FER (human) (UniProt P16591)
FER (human), sequence (P16591 whole entry, looked up): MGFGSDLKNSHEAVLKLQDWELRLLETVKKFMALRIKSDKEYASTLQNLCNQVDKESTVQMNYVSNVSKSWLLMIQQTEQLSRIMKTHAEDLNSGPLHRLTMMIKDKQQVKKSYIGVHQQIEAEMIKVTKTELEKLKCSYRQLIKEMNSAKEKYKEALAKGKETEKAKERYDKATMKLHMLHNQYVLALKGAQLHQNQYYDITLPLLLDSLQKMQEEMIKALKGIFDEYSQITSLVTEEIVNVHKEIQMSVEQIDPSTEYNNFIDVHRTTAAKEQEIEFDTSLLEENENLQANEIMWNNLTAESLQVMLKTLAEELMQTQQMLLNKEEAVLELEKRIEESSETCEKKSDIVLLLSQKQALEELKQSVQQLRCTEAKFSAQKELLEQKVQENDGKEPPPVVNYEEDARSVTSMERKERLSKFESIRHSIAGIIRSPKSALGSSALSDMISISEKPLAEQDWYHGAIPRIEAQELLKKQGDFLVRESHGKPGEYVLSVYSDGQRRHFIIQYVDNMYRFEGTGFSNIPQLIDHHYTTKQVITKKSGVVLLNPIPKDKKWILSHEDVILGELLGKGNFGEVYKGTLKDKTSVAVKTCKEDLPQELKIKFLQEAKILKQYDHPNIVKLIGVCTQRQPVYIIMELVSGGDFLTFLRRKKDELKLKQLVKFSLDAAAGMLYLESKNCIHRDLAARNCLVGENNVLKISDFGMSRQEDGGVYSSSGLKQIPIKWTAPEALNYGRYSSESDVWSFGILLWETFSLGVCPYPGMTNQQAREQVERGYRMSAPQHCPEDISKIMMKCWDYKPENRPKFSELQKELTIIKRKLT

STK32A (human) = STK32A (human) (UniProt Q8WU08)
PLK2 (human) = PLK2 (human) (UniProt Q9NYY3)
MUSK (human) = MUSK (human) (UniProt O15146)
[1] = tested on: RET (human), P07949 [V804L]
PLK1 (human) = PLK1 (human) (UniProt P53350)
MAP2K4 (human) = MAP2K4 (human) (UniProt P45985)
RPS6KA2 KD2 (human) = RPS6KA2 KD2 (human) (UniProt Q15349)
RPS6KA2 KD2 (human), sequence (Q15349 whole entry, looked up): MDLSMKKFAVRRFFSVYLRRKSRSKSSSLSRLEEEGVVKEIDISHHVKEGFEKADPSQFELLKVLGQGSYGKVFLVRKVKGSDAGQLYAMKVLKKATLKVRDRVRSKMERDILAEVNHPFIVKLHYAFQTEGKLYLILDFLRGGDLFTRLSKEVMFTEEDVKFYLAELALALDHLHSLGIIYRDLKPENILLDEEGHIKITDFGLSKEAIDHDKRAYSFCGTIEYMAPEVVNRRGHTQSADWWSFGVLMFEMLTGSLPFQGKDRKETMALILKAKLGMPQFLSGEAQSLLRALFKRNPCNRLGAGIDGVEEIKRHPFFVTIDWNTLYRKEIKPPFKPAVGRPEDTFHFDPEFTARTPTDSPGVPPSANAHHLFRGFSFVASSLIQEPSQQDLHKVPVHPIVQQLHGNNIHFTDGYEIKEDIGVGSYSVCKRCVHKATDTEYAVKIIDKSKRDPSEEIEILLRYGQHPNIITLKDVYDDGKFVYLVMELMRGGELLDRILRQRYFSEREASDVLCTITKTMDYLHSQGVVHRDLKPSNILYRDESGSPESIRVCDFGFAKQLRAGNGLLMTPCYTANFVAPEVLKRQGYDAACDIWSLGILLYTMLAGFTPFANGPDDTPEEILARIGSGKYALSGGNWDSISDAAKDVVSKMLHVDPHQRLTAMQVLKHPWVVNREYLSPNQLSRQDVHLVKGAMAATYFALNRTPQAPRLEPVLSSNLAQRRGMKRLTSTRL

MAP3K13 (human) = MAP3K13 (human) (UniProt O43283)
EPHA2 (human) = EPHA2 (human) (UniProt P29317)
SGK110 (human) = SGK110 (human) (UniProt P0C264)
SRPK2 (human) = SRPK2 (human) (UniProt P78362)
CDK7 (human) = CDK7 (human) (UniProt P50613)
MELK (human) = MELK (human) (UniProt Q14680)
ALK (human) = ALK (human) (UniProt Q9UM73)
PTK2B (human) = PTK2B (human) (UniProt Q14289)

CCc1nc(-c2cccc(C)c2)c(-c2ccnc(NC(=O)c3ccccc3)c2)s1
kinase still bound, per cent of control (DYRK1B (human)): 90% | kinase still bound, per cent of control (PAK2 (human)): 85% | kinase still bound, per cent of control (ZAP70 (human)): 100% | kinase still bound, per cent of control (MKNK2 (human)): 94% | kinase still bound, per cent of control (PAK1 (human)): 76% | kinase still bound, per cent of control (CAMK2D (human)): 100% | kinase still bound, per cent of control (MAPK15 (human)): 100% | kinase still bound, per cent of control (CDC42BPG (human)): 15% | kinase still bound, per cent of control (HCK (human)): 31% | kinase still bound, per cent of control (PHKG1 (human)): 100% | kinase still bound, per cent of control (GSK3B (human)): 60% | kinase still bound, per cent of control (INSRR (human)): 100% | kinase still bound, per cent of control (PRKCI (human)): 100% | kinase still bound, per cent of control (YSK4 (human)): 64% | kinase still bound, per cent of control (CDK8 (human)): 88% | kinase still bound, per cent of control (DCLK2 (human)): 98% | kinase still bound, per cent of control (MAP4K3 (human)): 80% | kinase still bound, per cent of control (MKNK1 (human)): 100% | kinase still bound, per cent of control (CSNK1G1 (human)): 28% | kinase still bound, per cent of control (LTK (human)): 26% | kinase still bound, per cent of control (ANKK1 (human)): 83% | kinase still bound, per cent of control (EPHA1 (human)): 56% | kinase still bound, per cent of control (ADCK4 (human)): 2.2% | kinase still bound, per cent of control (RIOK1 (human)): 100% | kinase still bound, per cent of control (FER (human)): 60% | kinase still bound, per cent of control (STK32A (human)): 9% | kinase still bound, per cent of control (PLK2 (human)): 100% | kinase still bound, per cent of control (MUSK (human)): 100% | kinase still bound, per cent of control [1]: 99% | kinase still bound, per cent of control (PLK1 (human)): 100% | kinase still bound, per cent of control (MAP2K4 (human)): 95% | kinase still bound, per cent of control (RPS6KA2 KD2 (human)): 86% | kinase still bound, per cent of control (MAP3K13 (human)): 100% | kinase still bound, per cent of control (EPHA2 (human)): 66% | kinase still bound, per cent of control (SGK110 (human)): 100% | kinase still bound, per cent of control (SRPK2 (human)): 73% | kinase still bound, per cent of control (CDK7 (human)): 100%

CCN(CCO)CCCOc1ccc2c(Nc3cc(CC(=O)Nc4cccc(F)c4)[nH]n3)ncnc2c1
kinase still bound, per cent of control (DYRK1B (human)): 86% | kinase still bound, per cent of control (PAK2 (human)): 100% | kinase still bound, per cent of control (ZAP70 (human)): 84% | kinase still bound, per cent of control (MKNK2 (human)): 6.4% | kinase still bound, per cent of control (MELK (human)): 47% | kinase still bound, per cent of control (PAK1 (human)): 100% | kinase still bound, per cent of control (CAMK2D (human)): 93% | kinase still bound, per cent of control (MAPK15 (human)): 100% | kinase still bound, per cent of control (CDC42BPG (human)): 100% | kinase still bound, per cent of control (HCK (human)): 31% | kinase still bound, per cent of control (PHKG1 (human)): 35% | kinase still bound, per cent of control (GSK3B (human)): 100% | kinase still bound, per cent of control (INSRR (human)): 76% | kinase still bound, per cent of control (PRKCI (human)): 96% | kinase still bound, per cent of control (ALK (human)): 98% | kinase still bound, per cent of control (YSK4 (human)): 39% | kinase still bound, per cent of control (CDK8 (human)): 75% | kinase still bound, per cent of control (DCLK2 (human)): 100% | kinase still bound, per cent of control (MAP4K3 (human)): 51% | kinase still bound, per cent of control (MKNK1 (human)): 68% | kinase still bound, per cent of control (LTK (human)): 17% | kinase still bound, per cent of control (ANKK1 (human)): 11% | kinase still bound, per cent of control (PTK2B (human)): 100% | kinase still bound, per cent of control (EPHA1 (human)): 100% | kinase still bound, per cent of control (ADCK4 (human)): 83% | kinase still bound, per cent of control (RIOK1 (human)): 100% | kinase still bound, per cent of control (FER (human)): 100% | kinase still bound, per cent of control (STK32A (human)): 100% | kinase still bound, per cent of control (PLK2 (human)): 93% | kinase still bound, per cent of control (MUSK (human)): 3.3% | kinase still bound, per cent of control [1]: 2% | kinase still bound, per cent of control (PLK1 (human)): 100% | kinase still bound, per cent of control (MAP2K4 (human)): 100% | kinase still bound, per cent of control (RPS6KA2 KD2 (human)): 77% | kinase still bound, per cent of control (MAP3K13 (human)): 100% | kinase still bound, per cent of control (EPHA2 (human)): 76% | kinase still bound, per cent of control (SGK110 (human)): 100% | kinase still bound, per cent of control (SRPK2 (human)): 92% | kinase still bound, per cent of control (CDK7 (human)): 15%
